Data reported in patent US10131653B2, “Heterocyclic compound” (TAKEDA PHARMACEUTICAL COMPANY LIMITED, priority 2015, dated 2018).
Where a name gives a salt, the structure may show the parent alone. Read-outs that look alike come from different tables or passages of the source.

Tests used:
human OX2 receptor = molecular target: T1, human OX2 receptor (Homo sapiens, UniProt O43614); experiment: Measurement of orexin receptor antagonistic activity (calcium fluorescence, FLIPRtetra); type: cell-based; details: CHO, read-out: Human Orexin2 receptor inhibition (at 10 μM)
T1 construct: expressed in transfected cells; host or cells: CHO cells
T1 sequence (O43614 1-444): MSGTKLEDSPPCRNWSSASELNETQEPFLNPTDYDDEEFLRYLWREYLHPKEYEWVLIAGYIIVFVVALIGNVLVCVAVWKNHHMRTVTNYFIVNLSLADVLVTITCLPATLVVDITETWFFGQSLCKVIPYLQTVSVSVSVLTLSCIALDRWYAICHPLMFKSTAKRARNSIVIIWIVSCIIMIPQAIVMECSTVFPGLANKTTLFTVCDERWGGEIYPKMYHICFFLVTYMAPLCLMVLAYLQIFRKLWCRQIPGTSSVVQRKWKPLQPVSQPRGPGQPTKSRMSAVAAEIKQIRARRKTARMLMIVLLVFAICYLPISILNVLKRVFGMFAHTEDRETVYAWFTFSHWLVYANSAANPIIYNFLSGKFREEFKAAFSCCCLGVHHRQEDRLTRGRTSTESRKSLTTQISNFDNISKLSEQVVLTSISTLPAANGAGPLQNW
Outline: (§1)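 Calcium fluorescence measured by FLIPRtetra every second for 2 min after orexin-A challenge, 1 nM final for OX1 and 0.3 nM final for OX2. Receptor-expressing CHO cells received compound in HEPES-buffered HBSS with 0.1% BSA just before agonist.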

human OX1 receptor = molecular target: T2, human OX1 receptor (Homo sapiens, UniProt O43613); experiment: as above; type: cell-based; details: CHO, read-out: Human Orexin1 receptor inhibition (at 10 μM)
T2 construct: expressed in transfected cells; host or cells: CHO cells
T2 sequence (O43613 1-425): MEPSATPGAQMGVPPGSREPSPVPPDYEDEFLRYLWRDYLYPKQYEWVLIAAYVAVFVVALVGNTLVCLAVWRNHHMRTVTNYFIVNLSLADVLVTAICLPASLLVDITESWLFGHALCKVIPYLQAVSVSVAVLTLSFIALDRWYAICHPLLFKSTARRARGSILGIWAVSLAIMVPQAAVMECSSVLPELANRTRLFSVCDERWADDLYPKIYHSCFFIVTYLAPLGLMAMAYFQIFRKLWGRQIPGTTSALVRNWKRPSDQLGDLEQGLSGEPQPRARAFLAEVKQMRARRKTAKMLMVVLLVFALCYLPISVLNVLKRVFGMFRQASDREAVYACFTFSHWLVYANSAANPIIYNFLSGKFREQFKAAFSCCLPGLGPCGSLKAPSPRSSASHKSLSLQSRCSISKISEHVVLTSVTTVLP
Outline: as §1

[1] = 10 μM test compound, CHO cells expressing human OX2 receptor, OX-A 0.3 nM
[2] = 10 μM test compound, CHO cells expressing human OX1 receptor, OX-A 1 nM

Row | inhibition at 10 µM (human OX2 receptor; [1]) | inhibition at 10 µM (human OX1 receptor; [2]) | SMILES | inhibition at 10 µM (human OX2 receptor) | inhibition at 10 µM (human OX1 receptor)
1 | 98% | 100% | Cc1cc(N2CCN(C(=O)c3ccccc3-c3nccs3)C[C@H](C)O2)nc(C)n1 [Example 84, ((7S)-2-(2,6-dimethylpyrimidin-4-yl)-7-methyl-1,2,5-oxadiazepan-5-yl)(2-(1,3-thiazol-2-yl)phenyl)methanone] | – | –
2 | 102% | 98% | Cc1nc(N2CCN(C(=O)c3ccccc3-c3nccs3)C[C@H](C)O2)cc(C(F)(F)F)n1 [Example 85, ((7S)-7-methyl-2-(2-methyl-6-(trifluoromethyl)pyrimidin-4-yl)-1,2,5-oxadiazepan-5-yl)(2-(1,3-thiazol-2-yl)phenyl)methanone] | – | –
3 | 101% | 73% | Cc1nc(N2CCN(C(=O)c3ccccc3-n3nccn3)C[C@H](C)O2)cc(C(F)(F)F)n1 [Example 92, ((7S)-7-methyl-2-(2-methyl-6-(trifluoromethyl)pyrimidin-4-yl)-1,2,5-oxadiazepan-5-yl)(2-(2H-1,2,3-triazol-2-yl)phenyl)methanone] | – | –
4 | 100% | 72% | Cc1nc(C(F)F)cc(N2CCN(C(=O)c3ccccc3-n3nccn3)C[C@H](C)O2)n1 [Example 93, ((7S)-2-(6-(difluoromethyl)-2-methylpyrimidin-4-yl)-7-methyl-1,2,5-oxadiazepan-5-yl) (2-(2H-1,2,3-triazol-2-yl)phenyl)methanone] | – | –
5 | 104% | 106% | Cc1cc(N2CCN(C(=O)c3ccccc3-n3nccn3)C[C@H](C)O2)nc(C(F)(F)F)n1 [Example 94, ((7S)-7-methyl-2-(6-methyl-2-(trifluoromethyl)pyrimidin-4-yl)-1,2,5-oxadiazepan-5-yl) (2-(2H-1,2,3-triazol-2-yl)phenyl)methanone] | – | –
6 | 97% | 100% | C[C@H]1CN(C(=O)c2ccccc2-n2nccn2)CCN(c2cc(C(F)F)nc(C3CC3)n2)O1 [Example 95, ((7S)-2-(2-cyclopropyl-6-(difluoromethyl)pyrimidin-4-yl)-7-methyl-1,2,5-oxadiazepan-5-yl) (2-(2H-1,2,3-triazol-2-yl)phenyl)methanone] | – | –
7 | 98% | 98% | C[C@H]1CN(C(=O)c2ccccc2-n2nccn2)CCN(c2cc(C3CC3)nc(C3CC3)n2)O1 [Example 96, ((7S)-2-(2,6-dicyclopropylpyrimidin-4-yl)-7-methyl-1,2,5-oxadiazepan-5-yl) (2-(2H-1,2,3-triazol-2-yl)phenyl)methanone] | – | –
8 | 100% | 95% | C[C@H]1CN(C(=O)c2ccccc2-n2nccn2)CCN(c2cc(C(F)(F)F)nc(C3CC3)n2)O1 [Example 97, ((7S)-2-(2-cyclopropyl-6-(trifluoromethyl)pyrimidin-4-yl)-7-methyl-1,2,5-oxadiazepan-5-yl) (2-(2H-1,2,3-triazol-2-yl)phenyl)methanone] | – | –
9 | 104% | 97% | C[C@H]1CN(C(=O)c2ccccc2-n2nccn2)CCN(c2ccc(Cl)cn2)O1 [Example 98, ((7S)-2-(5-chloropyridin-2-yl)-7-methyl-1,2,5-oxadiazepan-5-yl) (2-(2H-1,2,3-triazol-2-yl)phenyl)methanone] | – | –
10 | 98% | 87% | C[C@H]1CN(C(=O)c2ccccc2-n2nccn2)CCN(c2ccn3nccc3n2)O1 [Example 99, ((7S)-7-methyl-2-(pyrazolo[1,5-a]pyrimidin-5-yl)-1,2,5-oxadiazepan-5-yl)(2-(2H-1,2,3-triazol-2-yl)phenyl)methanone] | – | –

Second part, the compound before the results:

Row | SMILES | inhibition at 10 µM (human OX2 receptor; [1]) | inhibition at 10 µM (human OX1 receptor; [2]) | inhibition at 10 µM (human OX2 receptor) | inhibition at 10 µM (human OX1 receptor)
11 | Cc1cc(C)nc(N2CCN(C(=O)c3cccc4c3OCC4)CCO2)n1 [Example 74, 2,3-dihydro-1-benzofuran-7-yl (2-(4,6-dimethylpyrimidin-2-yl)-1,2,5-oxadiazepan-5-yl)methanone] | 57% | 10% | – | –
12 | Cc1cc(C)nc(N2CCN(C(=O)c3cccc4c3OC(C)(C)C4)CCO2)n1 [Example 75, (2,2-dimethyl-2,3-dihydro-1-benzofuran-7-yl) (2-(4,6-dimethylpyrimidin-2-yl)-1,2,5-oxadiazepan-5-yl)methanone] | – | – | 75% | 10%
13 | Cc1cc(C)nc(N2CCN(C(=O)c3cccc4c3C(=O)N(C)C4)CCO2)n1 [Example 76, 7-((2-(4,6-dimethylpyrimidin-2-yl)-1,2,5-oxadiazepan-5-yl)carbonyl)-2-methylisoindolin-1-one] | – | – | 22% | 6%
14 | COc1cc2c(cc1C(=O)N1CCON(c3nc(C)cc(C)n3)CC1)CCC2 [Example 77, (2-(4,6-dimethylpyrimidin-2-yl)-1,2,5-oxadiazepan-5-yl) (6-methoxy-2,3-dihydro-1H-inden-5-yl)methanone] | – | – | 69% | 12%
15 | Cc1cc(C)nc(N2CCN(C(=O)c3cccc(-c4ccccc4)c3)CCO2)n1 [Example 78, biphenyl-3-yl (2-(4,6-dimethylpyrimidin-2-yl)-1,2,5-oxadiazepan-5-yl)methanone] | 52% | 27% | – | –
16 | Cc1cc(C)nc(N2CCN(C(=O)c3ccccc3-c3ccccc3)CCO2)n1 [Example 79, biphenyl-2-yl (2-(4,6-dimethylpyrimidin-2-yl)-1,2,5-oxadiazepan-5-yl)methanone] | 98% | 57% | – | –
17 | Cc1cc(C)nc(N2CCN(C(=O)c3ccccc3-n3cccc3)CCO2)n1 [Example 80, (2-(4,6-dimethylpyrimidin-2-yl)-1,2,5-oxadiazepan-5-yl) (2-(1H-pyrrol-1-yl)phenyl)methanone] | – | – | 94% | 14%
18 | Cc1cc(C)nc(N2CCN(C(=O)c3ccccc3-c3ccco3)CCO2)n1 [Example 81, (2-(4,6-dimethylpyrimidin-2-yl)-1,2,5-oxadiazepan-5-yl) (2-(2-furyl)phenyl)methanone] | 99% | 85% | – | –
19 | Cc1cc(C)nc(N2CCN(C(=O)c3ccccc3-c3ncc[nH]3)CCO2)n1 [Example 82, (2-(4,6-dimethylpyrimidin-2-yl)-1,2,5-oxadiazepan-5-yl) (2-(1H-imidazol-2-yl)phenyl)methanone] | 83% | 18% | – | –
20 | Cc1cc(C)nc(N2CCN(C(=O)c3cc(C#N)ccc3C)CCO2)n1 [Example 83, 3-((2-(4,6-dimethylpyrimidin-2-yl)-1,2,5-oxadiazepan-5-yl)carbonyl)-4-methylbenzonitrile] | – | – | 24% | 7%
21 | Cc1cc(N2CCN(C(=O)c3cc(F)ccc3-c3nccs3)C[C@H](C)O2)nc(C)n1 [Example 87, ((7S)-2-(2,6-dimethylpyrimidin-4-yl)-7-methyl-1,2,5-oxadiazepan-5-yl)(5-fluoro-2-(1,3-thiazol-2-yl)phenyl)methanone hydrochloride] | 102% | 81% | – | –
22 | Cc1cc(N2CCN(C(=O)c3cc(Cl)ccc3-c3nccs3)C[C@H](C)O2)nc(C)n1 [Example 88, (5-chloro-2-(1,3-thiazol-2-yl)phenyl)((7S)-2-(2,6-dimethylpyrimidin-4-yl)-7-methyl-1,2,5-oxadiazepan-5-yl)methanone hydrochloride] | 99% | 101% | – | –
23 | Cc1cccc(N2CCN(C(=O)c3ccccc3-c3nccs3)C[C@H](C)O2)n1 [Example 89, ((7S)-7-methyl-2-(6-methylpyridin-2-yl)-1,2,5-oxadiazepan-5-yl) (2-(1,3-thiazol-2-yl)phenyl)methanone] | 97% | 101% | – | –
24 | C[C@H]1CN(C(=O)c2ccccc2-c2nccs2)CCN(c2ccc(Cl)cn2)O1 [Example 90, ((7S)-2-(5-chloropyridin-2-yl)-7-methyl-1,2,5-oxadiazepan-5-yl)(2-(1,3-thiazol-2-yl)phenyl)methanone] | 96% | 101% | – | –
25 | Cc1cc(C)nc(N2CCN(C(=O)c3ccccc3-c3nccs3)C[C@H](C)O2)c1 [Example 91, ((7S)-2-(4,6-dimethylpyridin-2-yl)-7-methyl-1,2,5-oxadiazepan-5-yl)(2-(1,3-thiazol-2-yl)phenyl)methanone] | 100% | 100% | – | –
